In one data set the target is T1, hERG (Homo sapiens, UniProt Q12809).
T1 construct: host or cells: HEK293
As to the kind of experiment: hERG whole cell patch clamp test. It is filed as cell-based. The note with it: human, HEK293 cells transfected with hERG, pH 7.4, read-out: hERG inhibition rate (%); for inhibition at 3 μmol/L: concentration 3 μmol/L; for inhibition at 30 μmol/L: concentration 30 μmol/L. As for the experimental part: (§1) Using human ether-a-go-go related gene (hERG)-transfected HEK293 cells (Cytomyx Limited), an influence on hERG current was examined according to the whole cell patch clamp technique. The hERG-transfected HEK293 cells were passaged using a CO2 incubator (BNA-111, TABAI ESPEC CORP.) under the set conditions of 37° C., 5% CO2, saturated humidity. Culture containers used were Collagen Type I Coated 75 cm^2 flask (4123-010, AGC TECHNO GLASS CO., Ltd.) and Collagen Type I Coated 35 mm culture dish (4000-010, AGC TECHNO GLASS CO., Ltd.). The culture medium used was E-MEM (Eagle Minimum Essential Medium (Earle's Salts, Nikken biomedical laboratory) added with 10% FCS (Fetal bovine serum, BioWest, L.L.C.) and 1% MEM Non-Essential Amino Acids Solution (NEAA, Invitrogen Corporation). Geneticin for the selection of hERG gene expressing cells was added thereto to a concentration of 400 μg/mL. As the cells for the measurement, 3×10^4 hERG-transfected HEK293 cells were plated on a 35 mm culture dish 4 to 7 days before measurement of the hERG current. The culture dish produced for the measurement contained the above-mentioned culture medium without geneticin (Invitrogen Corporation).
(§2) The highest evaluation concentration of each compound was determined from the highest concentration at which precipitation was not found in the standard extracellular fluid (NaCl: 140 mmol/L, KCl: 2.5 mmol/L, MgCl2: 2 mmol/L, CaCl2: 2 mmol/L, HEPES: 10 mmol/L, glucose: 10 mmol/L (adjusted to pH 7.4 with Tris-base)). As the application method, each solution to be applied was ejected from a Y-tube having a tip diameter of about 0.25 mm, which was adjacent (about 2 mm) to the cells, and applied to the cells. The ejection rate was about 0.4 mL/min.
(§3) The experiment was performed at room temperature under a phase contrast microscope. The 35 mm culture dish plated with the cells was set on a measurement apparatus, and the standard extracellular fluid was continuously applied to the cells from the Y-tube. A glass electrode for the measurement was filled with an intracellular fluid (Potassium Gluconate: 130 mmol/L, KCl: 20 mmol/L, MgCl2: 1 mmol/L, ATP-Mg: 5 mmol/L, EGTA: 3.5 mmol/L, HEPES: 10 mmol/L (adjusted to pH 7.2 with Tris-base)). A conventional whole cell patch clamp method was applied to the cells, and the maintenance electric potential was set to −80 mV. Under a fixed electric potential, the whole cell current was amplified by an amplifier for patch clamp (AXOPATCH-200B, Axon Instruments, Inc.), and the data was loaded into a computer (IMC-P642400, Intermedical Co., Ltd.) using a data acquisition analysis software (pCLAMP 9.2, Axon Instruments, Inc.).
(§4) The measurement of the hERG current was performed in the following two steps. In both cases, the hERG current was initiated by giving a command potential (maintenance electric potential −80 mV, prepulse+20 mV, 1.5 sec, test-pulse −50 mV, 1.5 sec).
(§5) Step (1): The above-mentioned command potential was given at 0.1 Hz for 2 min.
(§6) Step (2): The above-mentioned command potential was subjected to P/3 subtraction of pCLAMP 9.2 to remove leak current. This was repeated three times and an average thereof was taken as hERG current.
(§7) Subsequent to step (1), Step (2) was performed (about 3 min), and the maximum tail current obtained by applying a test-pulse to the hERG current obtained by the method of step (2) was taken as hERG current value. Hereafter, the operations of (1) and (2) were alternately repeated until completion of the experiment and the hERG current value was measured.
(§8) Stable hERG current value was recorded three times (about 10 min), and the standard extracellular fluid was instantaneously exchanged with each application fluid. The hERG current value was measured three times (about 10 min) in the same manner during perfusion of the application fluid, and the current value obtained by the 3rd measurement was taken as hERG current value after perfusion of the application fluid. […]

In data set [1] the target is T2, hERG current (hERG-transfected HEK293 cells) (Homo sapiens, UniProt Q12809).
T2 construct: host or cells: HEK293
In words: hERG whole cell patch clamp test. The settings on record: whole cell patch clamp, hERG-transfected HEK293 cells. It is filed as cell-based. As for the experimental part: as §1, §2, §3, §4, §5, §6, §7, §8
For orientation: Block of hERG is tested as a sign of cardiac risk.

As usually defined, the inhibition is the share of the control response that was lost under treatment. The term IC50 denotes the concentration at which inhibition is half-maximal.

Structures are written as SMILES.

T1 sequence (Q12809 whole entry): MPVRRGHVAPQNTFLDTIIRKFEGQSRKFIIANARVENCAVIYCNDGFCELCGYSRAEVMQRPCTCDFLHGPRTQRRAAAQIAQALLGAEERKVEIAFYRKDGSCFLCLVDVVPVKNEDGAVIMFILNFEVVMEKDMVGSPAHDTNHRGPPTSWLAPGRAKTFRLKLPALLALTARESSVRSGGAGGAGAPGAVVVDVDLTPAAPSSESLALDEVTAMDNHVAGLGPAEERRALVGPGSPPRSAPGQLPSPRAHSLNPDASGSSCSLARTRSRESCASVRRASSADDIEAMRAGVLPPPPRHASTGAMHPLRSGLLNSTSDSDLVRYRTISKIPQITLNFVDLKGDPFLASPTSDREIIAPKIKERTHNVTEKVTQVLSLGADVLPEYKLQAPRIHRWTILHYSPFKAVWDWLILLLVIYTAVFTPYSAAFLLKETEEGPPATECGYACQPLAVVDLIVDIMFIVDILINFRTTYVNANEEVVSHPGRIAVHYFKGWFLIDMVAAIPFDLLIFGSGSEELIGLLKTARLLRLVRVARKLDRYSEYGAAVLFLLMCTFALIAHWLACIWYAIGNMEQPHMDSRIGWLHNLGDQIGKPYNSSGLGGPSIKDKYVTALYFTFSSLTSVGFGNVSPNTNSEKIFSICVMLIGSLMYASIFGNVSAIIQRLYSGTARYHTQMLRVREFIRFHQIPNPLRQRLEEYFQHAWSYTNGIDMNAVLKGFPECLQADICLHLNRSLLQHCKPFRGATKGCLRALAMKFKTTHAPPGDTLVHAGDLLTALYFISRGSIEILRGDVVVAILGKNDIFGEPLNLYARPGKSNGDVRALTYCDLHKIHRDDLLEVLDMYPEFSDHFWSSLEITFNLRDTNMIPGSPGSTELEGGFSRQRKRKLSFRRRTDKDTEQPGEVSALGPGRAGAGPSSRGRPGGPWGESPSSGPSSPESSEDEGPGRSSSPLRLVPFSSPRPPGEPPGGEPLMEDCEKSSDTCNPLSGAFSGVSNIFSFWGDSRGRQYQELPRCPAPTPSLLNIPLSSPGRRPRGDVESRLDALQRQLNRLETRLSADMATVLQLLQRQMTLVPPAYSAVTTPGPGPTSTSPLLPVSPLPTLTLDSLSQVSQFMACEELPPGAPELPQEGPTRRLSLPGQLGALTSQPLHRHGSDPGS
T2 sequence (Q12809 whole entry): as above

Take `CC(C)(O)COc1cc(-c2cnn(CCO)c2)c2c(c1)[C@@](O)(C(F)(F)F)c1ccccc1-2` [compound (C), (9R)-4-[1-(2-Hydroxyethyl)-1H-pyrazol-4-yl]-2-(2-hydroxy-2-methylpropoxy)-9-(trifluoromethyl)-9H-fluoren-9-ol]: on hERG, the inhibition at 3 μmol/L was found to be 11.5% and the inhibition at 30 μmol/L is 69%. In data set [1], the IC50 is 13.2 µM.

Consider `CC(C)(C(N)=O)n1cc(-c2cc(F)cc3c2-c2ccccc2[C@]3(O)C(F)(F)F)cn1` [compound (D), 2-{4-[(9R)-2-Fluoro-9-hydroxy-9-(trifluoromethyl)-9H-fluoren-4-yl]-1H-pyrazol-1-yl}-2-methylpropanamide], for which, at hERG, the inhibition at 3 μmol/L is 9.4% and the inhibition at 30 μmol/L stood at 67.5%. This compound also registered an IC50 in data set [1] of 14.2 µM.

(Values after patent publication US20150018403A1, “FLUORENE-AMIDE COMPOUNDS AND PHARMACEUTICAL USE THEREOF” (JAPAN TOBACCO INC., priority 2013, published 2015).)
